# Data from patent publication US5753664A, “Heterocyclic compounds, their production and use” (Takeda Chemical Industries, Ltd., priority 1995, dated 1998).
# What was measured:
# [1] = test system: Prostate carcinoma cell line PC-3; assay: In vitro prostate carcinoma cell proliferation inhibition assay (MTT); assay type: cell-based, human; details: Homo sapiens, 72 h; PC-3, 3 days incubation, MTT; read-out: IC50 PC-3
# Method: In vitro prostate carcinoma cell proliferation inhibition assay
# Prostate carcinoma cell line PC-3 cells were suspended in Ham's F-12K medium (Flow Laboratories or Dainippon Pharmaceutical Co,. Ltd) supplemented with 10% fetal calf serum, and seeded in a 96-well microtiter plate (5000 cells/50 or 75 μl/well). The plate was then incubated in a 5% CO2 incubator at 37° C. On the following day, a 3-fold dilution series with the medium with serum of the test compound in N,N-dimethylformamide (DMF) (50 or 25 μl/well) were added (final volume […]) and the plate was incubated for another 3 days. Following addition of a thiazolyl-tetrazolium (MTT) solution, absorbance based on the viable cell number was determined "Tada et al., Journal of Immunological Methods, 93, 157 (1986)". With the estimated cell number in the control group to which the test compound solution was not added being taken as 100%, the percentage of the estimated cell number in each test group was determined and the concentration (IC50 value) of the test compound which was required for 50% inhibition of the estimated viable cell number in the control group was calculated.
# [2] = test system: human prostatic carcinoma cells PC-3; assay: Inhibitory action against the growth of subcutaneously implanted tumor (Test Example 3, oral dosing); assay type: in vivo, human; BALB/c nu/nu mouse; details: 75 mg/kg p.o., once a day for 3 weeks
# Method: Inhibitory action of the test compound against the growth of subcutaneously implanted tumor
# The human prostatic carcinoma cells PC-3, which are maintained in vitro, were harvested using 0.05% trypsin, washed with Ham's F12K medium containing 10% serum, and then suspended in PBS (phosphate-buffered saline) at a concentration of 3×10^7 cells/ml. The aliquot of 100 μl was transplanted into the right central flank region of a 7-week old, male BALB/c nu/nu mouse using a syringe with a 25 guage needle. After the size of the resulting tumor mass was measured on the 32nd day after the transplantation, the mice were divided into groups of five animals (the average tumor volume of each group was between 273 and 293 mm^3), and then the treatment with test compound was commenced. Tumor volume was calculated according to the formulation: tumor volume =0.5×(the longest diameter)×(the shortest diameter)2 after two-dimensional measurement of the tumor mass by a caliper. The test compound was suspended in 0.5% methylcellulose/physiological saline, and orally administered at a volume of 10 μl/g body weight. […] The inhibitory action was assessed on the 53rd day after the transplanation, the first day after the last administration, by the ratio of tumor volume gain of treated groups to that of the control group (T/C %). The dosage of the test compounds was expressed as mg/kg/shot.
# [3] = test system: human prostatic carcinoma cells PC-3; assay: Inhibitory action against the growth of subcutaneously implanted tumor (Test Example 2, subcutaneous dosing); assay type: in vivo, human; BALB/c nu/nu mouse; details: 80 mg/kg s.c., Mon/Wed/Fri for 3 weeks; for Tumor volume gain: 46th day after transplantation, mean ± SD; for T/C: 46th day, ratio of tumor volume gain treated/control
# Method: Inhibitory action of the test compounds against the growth of subcutaneously implanted tumor
# The human prostatic carcinoma cells PC-3, which are maintained in vitro, were harvested using 0.05% trypsin, washed with Ham's F12K medium containing 10% serum, and then suspended in PBS (phosphate-buffered saline) at a concentration of 3×10^7 cells/ml. The aliquot of 100 μl was transplanted into the right central flank region of a 7-week old, male BALB/c nu/nu mouse using a syringe with a 25 gauge needle. After the size of the resulting tumor mass was measured on the 25th day after the transplantation, the mice were divided into groups of five animals (the average tumor volume of each group was between […]), and then the treatment with test compounds was commenced. Tumor volume was calculated according to the formulation: tumor volume =0.5×(the longest diameter)×(the shortest diameter)^2 after two-dimensional measurement of the tumor mass by a caliper. The test compounds were suspended in 0.5% methylcellulose/physiological saline, and subcutaneously injected at a volume of 10 μl/g body weight.
# Thereafter the test compounds were administered every Monday, Wednesday and Friday for 3 weeks. The inhibitory action was assessed on the 46th day after the transplanation by the ratio of tumor volume gain of treated groups to that of the control group(T/C %). The dosage of the test compounds was expressed as mg/kg/shot.
IC50 [1] [nM],SMILES,"Tumor volume gain ([2]; 53rd day after transplantation, mean ± SD) [mm^3]","T/C ([2]; 53rd day, ratio of tumor volume gain treated/control) [%]",Tumor volume gain [3] [mm^3],T/C [3] [%]
1.9,"O=C(c1ccc(Cl)cc1)c1ccc(Cn2ccn3c(=O)c4c(nc23)CCCC4)cc1 [Example 189, 1-[4-(4-Chlorobenzoyl)benzyl]-6,7,8,9-tetrahydroimidazo[2,1-b]quinazolin-5(1H)-one]",697 ± 199,53,,
,"Cc1cccc2nc(SCc3ccc(C(=O)c4ccc(Cl)cc4)cc3)n(C)c(=O)c12 [Example 42, 2-[4-(4-Chlorobenzoyl)benzylthio]-3,5-dimethyl-quinazolin-4-one]",,,329 ± 252,36
,"Cn1c(SCc2ccc(C(=O)c3ccc(Cl)cc3)cc2)nc2ccsc2c1=O [Example 7, 2-[4-(4-Chlorobenzoyl)benzyl]thio-3-methylthieno-[3,2-d]pyrimidin-4(3H)-one]",,,445 ± 110,49
